From US20160115540A1, “PRODRUGS AND DRUGS” (Biogen MA Inc., priority 2013, published 2016)
Where a name gives a salt, the structure may show the parent alone.

Test system: striatum
Test: Transcriptional profiling on Affymetrix GeneChips, single dose, naïve mice: striatum
Assay type: in vivo, C57BL/6 mice
Conditions: for Number of differentially expressed genes identified: Striatum: Naïve, Single Dose; for Aox1 (1419435_PM_at) differential expression: 7 hr; for differentially expressed genes: 100DMF-vs-100MMF
Description: Treated mice were sacrificed at 2, 7, or 12 hours. Tissues (liver, spleen, kidney, jejunum, cortex, hippocampus, striatum and whole blood) were collected and analyzed by transcriptional profiling on mouse Affymetrix GeneChips.
Tissues (liver, spleen, kidney, jejunum, cortex, hippocampus, striatum and whole blood) were collected and analyzed by transcriptional profiling on mouse Affymetrix GeneChips.
Animals were exposed to CO2 and whole blood collected via cardiac puncture. Two 100 μl aliquots of whole blood were collected in 1.5 mL microcentrifuge tubes and snap frozen in liquid nitrogen. Peripheral (liver, spleen, kidney and jejunum) and CNS brain (cerebellum, hippocampus, striatum and cortex) tissues were harvested and snap frozen in liquid nitrogen, with special care taken to collect tissues of similar size and from the same location. All samples were stored at −80° C. until RNA extraction was conducted.
For RNA preparation, frozen tissues were placed in 2 mL RNAse-free 96-well blocks with 1.5 mL QIAzol Lysis Reagent (QIAgen) and a 3.2 mm stainless steel bead (BioSpec Products, Bartlesville, Okla.). Tissues were disrupted for four cycles of 45 seconds in a Mini-Beadbeater (Biospec Products). RNA was extracted in chloroform and the aqueous phase was mixed with an equal volume of 70% ethanol. Extracted RNA was applied to RNeasy 96 plates and purified by the spin method according to the manufacturer's protocol (RNeasy 96 Universal Tissue Protocol, QIAgen, Hilden Germany).
Automated sample amplifications and biotin labelings were carried out using the NuGEN Ovation RNA Amplification system V2 (Cat #3100), Ovation WB reagent (Cat #1300) and Encore Biotin module (Cat #4200) (NuGEN Technologies, Inc, San Carlos, Calif.) according to manufacturer's recommendations using an Arrayplex automated liquid handler (Beckman Coulter, Indianapolis, Ind.). Two micrograms of biotin labeled sscDNA probe were hybridized to Affymetrix GeneChip Affymetrix HT_MG-430_PM plate arrays with modified conditions as described in Allaire et al. Washing and staining of the hybridized arrays were completed as described in the GeneChip Expression analysis technical manual for HT plate arrays using the Genechip® Array Station (Affymetrix, Santa Clara, Calif.) with modifications as described in Allaire et al. The processed GeneChip® plate arrays were scanned using GeneTitan scanner (Affymetrix, Santa Clara, Calif.).
Affymetrix scans were subject to quality control (QC) measures. These tests included a visual inspection of the distribution of raw signal intensities and an assessment of RNA degradation, relative log expression (RLE), and normalized unsealed standard error (NUSE). All sample scans that passed these QC metrics were included in the analysis.
All CEL files were subjected to GC-content-based Robust Multi-array Average (GCRMA) normalization (version 2.20.0) (Irizarry R A, et al. Nucleic Acids Res 2003; 31:e15; Li C, et al. Genome Biol 2001; 2:[…]0032). Expression levels were log (base 2) transformed.
All calculations and analyses were carried out using R (version 2.11.1) and Bioconductor computational tools (Gentleman R. Springer Science+Business Media 2005).

[1] = 100 mpk, vs Vehicle, 2 h after last dosing
[2] = 100 mpk, vs Vehicle, 7 h after last dosing
[3] = 100 mpk, vs Vehicle, 12 h after last dosing
[4] = striatum, 2 hr after single 100 mg/kg oral dose
[5] = striatum, 12 hr after single 100 mg/kg oral dose

COC(=O)/C=C/C(=O)OC [DMF, dimethyl fumarate]
Number of differentially expressed genes identified: Striatum (100 mpk DMF-vs-100 mpk MMF, 2 h after last dosing): 0 | Number of differentially expressed genes identified: Striatum (100 mpk DMF-vs-100 mpk MMF, 7 h after last dosing): 0 | Number of differentially expressed genes identified: Striatum (100 mpk DMF-vs-100 mpk MMF, 12 h after last dosing): 0 | Number of differentially expressed genes identified: Striatum [1]: 4 | Number of differentially expressed genes identified: Striatum [2]: 2 | Number of differentially expressed genes identified: Striatum [3]: 2 | Number of genes, DMF Only / MMF Only (Striatum): 5 | Gtpbp10 (1434030_PM_at) differential expression (Striatum, 2 hr): −1.52 | Kdm3b (1428320_PM_at) differential expression (Striatum, 2 hr): −1.54 | Mkln1 (1416734_PM_at) differential expression (Striatum, 2 hr): −1.97 | Ptprg (1456070_PM_at) differential expression (Striatum, 2 hr): −1.54 | Aox1 (1419435_PM_at) differential expression (Striatum): 1.64 | Nfia (1438236_PM_at) differential expression (Striatum, 12 hr): −1.53 | Zeb2 (1422748_PM_at) differential expression (Striatum, 12 hr): −1.66 | differentially expressed genes (striatum, 2 h): None | differentially expressed genes (striatum, 7 h): None | differentially expressed genes (striatum, 12 h): None | FC Gtpbp10 (1434030_PM_at) (striatum, 100DMF-vs-Veh, 2 h): −1.52 | FC Kdm3b (1428320_PM_at) (striatum, 100DMF-vs-Veh, 2 h): −1.54 | FC Mkln1 (1416734_PM_at) (striatum, 100DMF-vs-Veh, 2 h): −1.97 | FC probe 1444791_PM_at (striatum, 100DMF-vs-Veh, 2 h): −1.60 | FC Aox1 (1419435_PM_at) (striatum, 100DMF-vs-Veh, 7 h): 1.64 | FC probe 1443353_PM_at (striatum, 100DMF-vs-Veh, 7 h): −1.83 | FC Nfia (1438236_PM_at) (striatum, 100DMF-vs-Veh, 12 h): −1.53 | FC Zeb2 (1422748_PM_at) (striatum, 100DMF-vs-Veh, 12 h): −1.66

COC(=O)/C=C/C(=O)O [MMF, monomethyl fumarate]
Number of differentially expressed genes identified: Striatum [1]: 6 | Number of differentially expressed genes identified: Striatum [2]: 1 | Number of differentially expressed genes identified: Striatum [3]: 7 | Number of genes, DMF Only / MMF Only (Striatum): 12 | Gna13 (1422556_PM_at) differential expression (Striatum, 2 hr): −1.63 | Golga3 (1449616_PM_s_at) differential expression (Striatum, 2 hr): −1.63 | Grin2a (1421616_PM_at) differential expression (Striatum, 2 hr): −1.78 | Kdm3b (1428320_PM_at) differential expression (Striatum, 2 hr): −1.56 | Lrrc41 (1427125_PM_s_at) differential expression (Striatum, 2 hr): −1.54 | Top2b (1448458_PM_at) differential expression (Striatum, 2 hr): −1.56 | Aox1 (1419435_PM_at) differential expression (Striatum): 1.95 | Adamts9 (1437785_PM_at) differential expression (Striatum, 12 hr): −2.58 | Galnt12 (1437760_PM_at) differential expression (Striatum, 12 hr): 1.50 | Hrh3 (1448807_PM_at) differential expression (Striatum, 12 hr): 1.59 | Itpkb (1435272_PM_at) differential expression (Striatum, 12 hr): −1.56 | Pvrl3 (1457257_PM_x_at) differential expression (Striatum, 12 hr): −1.80 | St18 (1455123_PM_at) differential expression (Striatum, 12 hr): −1.69 | Tmprss6 (1428676_PM_at) differential expression (Striatum, 12 hr): 1.68 | FC Golga3 (1449616_PM_s_at) (striatum, 100MMF-vs-Veh, 2 h): −1.63 | FC Grin2a (1421616_PM_at) (striatum, 100MMF-vs-Veh, 2 h): −1.78 | FC Kdm3b (1428320_PM_at) (striatum, 100MMF-vs-Veh, 2 h): −1.56 | FC Lrrc41 (1427125_PM_s_at) (striatum, 100MMF-vs-Veh, 2 h): −1.54 | FC Top2b (1448458_PM_at) (striatum, 100MMF-vs-Veh, 2 h): −1.56 | FC probe 1442867_PM_at (striatum, 100MMF-vs-Veh, 2 h): −1.57 | FC Aox1 (1419435_PM_at) (striatum, 100MMF-vs-Veh, 7 h): 1.95 | FC Adamts9 (1437785_PM_at) (striatum, 100MMF-vs-Veh, 12 h): −2.58 | FC Galnt12 (1437760_PM_at) (striatum, 100MMF-vs-Veh, 12 h): 1.50 | FC Hrh3 (1448807_PM_at) (striatum, 100MMF-vs-Veh, 12 h): 1.59 | FC Itpkb (1435272_PM_at) (striatum, 100MMF-vs-Veh, 12 h): −1.56 | FC Pvrl3 (1457257_PM_x_at) (striatum, 100MMF-vs-Veh, 12 h): −1.80 | FC St18 (1455123_PM_at) (striatum, 100MMF-vs-Veh, 12 h): −1.69 | FC Tmprss6 (1428676_PM_at) (striatum, 100MMF-vs-Veh, 12 h): 1.68 | Gna13 mRNA fold change vs vehicle [4]: −1.63 | Golga3 mRNA fold change vs vehicle [4]: −1.63 | Grin2a mRNA fold change vs vehicle [4]: −1.78 | Kdm3b mRNA fold change vs vehicle [4]: −1.56 | Lrrc41 mRNA fold change vs vehicle [4]: −1.54 | Top2b mRNA fold change vs vehicle [4]: −1.56 | Aox1 mRNA fold change vs vehicle (striatum, 7 hr after single 100 mg/kg oral dose): 1.95 | Adamts9 mRNA fold change vs vehicle [5]: −2.58 | Galnt12 mRNA fold change vs vehicle [5]: 1.50 | Hrh3 mRNA fold change vs vehicle [5]: 1.59 | Itpkb mRNA fold change vs vehicle [5]: −1.56 | Pvrl3 mRNA fold change vs vehicle [5]: −1.80 | St18 mRNA fold change vs vehicle [5]: −1.69 | Tmprss6 mRNA fold change vs vehicle [5]: 1.68
